In ChEMBL document CHEMBL4411307, “N,N'-diaryl-bishydrazones in a biphenyl platform: Broad spectrum antifungal agents” (Eur J Med Chem, 2019):
Values after ≈ are worked out from the molar mass of the structure shown. Active and inactive are the calls of the source. The calls are words filed in the database; no cut-off is given here.

How the values were obtained:
[1] = test system: Candida albicans; test: Antifungal activity against fluconazole/ITC-resistant Candida albicans ATCC 10231 measured after 48 hrs by CLSI M27-A3 protocol based method; type: functional; conditions: ATCC 10231, 48 h
[2] = test system: Candida albicans; test: Antifungal activity against fluconazole/ITC-resistant Candida albicans ATCC 64124 measured after 48 hrs by CLSI M27-A3 protocol based method; type: functional; conditions: ATCC 64124, 48 h
[3] = test system: Candida albicans; test: Antifungal activity against fluconazole/ITC-resistant Candida albicans ATCC 90819 measured after 48 hrs by CLSI M27-A3 protocol based method; type: functional; conditions: ATCC 90819, 48 h
[4] = test system: Candida albicans; test: Antifungal activity against fluconazole/ITC-susceptible Candida albicans ATCC MYA-2310 measured after 48 hrs by CLSI M27-A3 protocol based method; type: functional; conditions: ATCC MYA-2310, 48 h
[5] = test system: Candida albicans; test: Antifungal activity against fluconazole/ITC-resistant Candida albicans ATCC MYA-1237 measured after 48 hrs by CLSI M27-A3 protocol based method; type: functional; conditions: ATCC MYA-1237, 48 h
[6] = test system: Candida parapsilosis; test: Antifungal activity against Candida parapsilosis ATCC 22019 measured after 48 hrs by CLSI M27-A3 protocol based method; type: functional; conditions: Lodderomyces parapsilosis, ATCC 22019, 48 h
[7] = test system: Aspergillus flavus; test: Antifungal activity against Aspergillus flavus ATCC MYA-3631 measured after 48 hrs by CLSI M38-A2 protocol based method; type: functional; conditions: ATCC MYA-3631, 48 h
[8] = test system: Aspergillus nidulans; test: Antifungal activity against Aspergillus nidulans ATCC 38163 measured after 48 hrs by CLSI M38-A2 protocol based method; type: functional; conditions: ATCC 38163, 48 h
[9] = test system: Aspergillus terreus; test: Antifungal activity against Aspergillus terreus ATCC MYA-3633 measured after 48 hrs by CLSI M38-A2 protocol based method; type: functional; conditions: ATCC MYA-3633, 48 h
[10] = test system: Candida albicans; test: Antibiofilm activity against fluconazole/ITC-resistant Candida albicans ATCC 10231 assessed as reduction in sessile growth after 24 hrs by XTT assay; type: functional; conditions: ATCC 10231, 24 h
[11] = test system: Candida albicans; test: Antibiofilm activity against fluconazole/ITC-resistant Candida albicans ATCC 64124 assessed as reduction in sessile growth after 24 hrs by XTT assay; type: functional; conditions: ATCC 64124, 24 h
[12] = Hemolytic activity in mouse RBC at […] after 1 hr relative to control; type: ADME, cell-based, Erythrocyte; conditions: red blood cells (erythrocytes), read-out: Activity; further: tested at 0.48 µg/mL
[13] = Hemolytic activity in mouse RBC at […] ug/ml after 1 hr relative to control; type: ADME, cell-based, Erythrocyte; conditions: red blood cells (erythrocytes), read-out: Activity
[14] = Hemolytic activity in mouse RBC at 1.95 ug/ml after 1 hr relative to control; type: ADME, cell-based, Erythrocyte; conditions: red blood cells (erythrocytes), read-out: Activity
[15] = Hemolytic activity in mouse RBC at 3.9 ug/ml after 1 hr relative to control; type: ADME, cell-based, Erythrocyte; conditions: red blood cells (erythrocytes), read-out: Activity
[16] = Hemolytic activity in mouse RBC at 7.8 ug/ml after 1 hr relative to control; type: ADME, cell-based, Erythrocyte; conditions: red blood cells (erythrocytes), read-out: Activity
[17] = Hemolytic activity in mouse RBC at 31.3 ug/ml after 1 hr relative to control; type: ADME, cell-based, Erythrocyte; conditions: red blood cells (erythrocytes), read-out: Activity
[18] = test system: Candida albicans; test: Fungicidal activity against fluconazole/ITC-resistant Candida albicans ATCC 10231 assessed as reduction in fungal growth at 0.5 to 2 times MIC incubated for 24 hrs followed by replating on PDA plates measured after 48 hrs Time-Kill assay; type: functional, organism-based

## C[C@@H](c1ncncc1F)[C@](O)(Cn1cncn1)c1ccc(F)cc1F [VORICONAZOLE]
[1]
  MIC: 0.975 µg/mL (≈ 2.79 µM)
[2]
  MIC: 0.24 µg/mL (≈ 0.687 µM)
[3]
  MIC: 0.12 µg/mL (≈ 0.344 µM)
[4]
  MIC: 0.12 µg/mL (≈ 0.344 µM)
[5]
  MIC: 0.24 µg/mL (≈ 0.687 µM)
[6]
  MIC: 1.95 µg/mL (≈ 5.58 µM)
[7]
  MIC: > 31.3 µg/mL
[8]
  MIC: > 31.3 µg/mL
[9]
  MIC: > 31.3 µg/mL
[10]
  MIC50: 16 µg/mL (≈ 45.8 µM)
  MIC90: > 32 µg/mL
[11]
  MIC50: 16 µg/mL (≈ 45.8 µM)
  MIC90: > 32 µg/mL
[12]
  hemolysis at 1 h, […]: 8.7%
[13]; at 15.6 µg/mL
  hemolysis at 1 h, 15.6 ug/ml: 2.8%
[13]
  hemolysis at 1 h, 0.975 ug/ml: 10.3%
[14]
  hemolysis at 1 h, 1.95 ug/ml: 6.3%
[15]
  hemolysis at 1 h, 3.9 ug/ml: 7.5%
[16]
  hemolysis at 1 h, 7.8 ug/ml: 11.4%
[17]
  hemolysis at 1 h, 31.3 ug/ml: 83%
[18]
  Activity: Active
